These results are taken from publication PMC12036814 (Angewandte Chemie (International Ed. in English), 2025).

The target in one test is T1, AIFM1 (Homo sapiens, UniProt O95831).
T1 construct: made in house; host or cells: E. coli Rosetta2
The test can be described thus: Gel-based labelling of recombinant AIFM1 spiked into HEK-293 lysate. In kind it is binding. Conditions: 5 μM probe, AIFM1 spiked in HEK-293 lysate. How it is done:
AIFM1 expression & purification
Recombinant AIFM1 was expressed in a Rosetta2 E. coli strain. Bacterial growth was conducted in LB media supplemented with riboflavin and FAD shaking at 37°C and 180 rpm. Expression was induced with 1.0 mM IPTG and incubated for further 16 h before harvesting. Cells were harvested on ice in PBS and cell pellets stored at -20°C. Cells were lysed by French press and the 6xHis-tagged constructs were purified by Immobilized Metal Affinity Chromatography using Ni Sepharose (6 Fast Flow, GE). The centrifugation-cleared bacterial lysate was bound to beads in binding buffer (200 mM NaCl, 20 mM Tris/Cl pH = 7.4). […]
For gel-based fluorescence labelling of recombinant AIFM1, 1.7 µM recombinant protein was spiked - in to PBS or PBS -diluted HEK293 cell lysate ( 100 µg per reaction sample). […]
Click Master-mix (8 µL, 100 µM TAMRA-azide, Baseclick, Neuried, Germany, Cat# BCFA-008-10, 500 µM BTTAA ligand, Jena Bioscience, Jena, Germany, CLK -067, 1 mM CuSO4) was added and the CuAAC reaction started by addition of 2 µL of aq. sodium ascorbate (c end= 2 mM). […] Fluorescence scanning was performed using a Las-3000 fluorescence darkbox (Fujifilm, Minato, Japan) with a Fujinon VRF 43LMD Lens, 605DF40 filter and 520 nm EPI excitation wavelength and loading controls were developed with Coomassie stain afterwards. […]

A further test deals with T2, SCARB1 (Homo sapiens, UniProt Q8WTV0).
T2 construct: purchased Hölzel Biotech SC1-H82E5
T2 sequence (Q8WTV0 1-552): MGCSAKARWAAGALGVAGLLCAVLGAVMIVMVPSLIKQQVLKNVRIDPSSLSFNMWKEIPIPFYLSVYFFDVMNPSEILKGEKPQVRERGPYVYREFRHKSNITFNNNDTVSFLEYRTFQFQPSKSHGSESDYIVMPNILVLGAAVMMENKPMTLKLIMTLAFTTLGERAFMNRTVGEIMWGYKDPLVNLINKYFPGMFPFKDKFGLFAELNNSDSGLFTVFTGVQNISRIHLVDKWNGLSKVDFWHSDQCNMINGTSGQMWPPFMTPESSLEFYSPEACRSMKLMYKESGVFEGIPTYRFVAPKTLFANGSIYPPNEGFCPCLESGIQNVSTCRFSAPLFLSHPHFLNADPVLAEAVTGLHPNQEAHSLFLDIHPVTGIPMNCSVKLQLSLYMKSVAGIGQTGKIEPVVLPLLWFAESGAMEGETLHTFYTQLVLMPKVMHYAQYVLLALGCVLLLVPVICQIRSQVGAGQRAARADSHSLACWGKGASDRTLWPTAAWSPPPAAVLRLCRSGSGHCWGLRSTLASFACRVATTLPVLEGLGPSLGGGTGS
The test can be described thus: Microscale thermophoresis (MST) binding. The method, then:
reaction was terminated by addition of 800 μL EtOAc+0.5% AcOH, 300 μL H2O and 100 μL internal standard (13,14-dihydro-15-ketoprostaglandin -d4, 300 pmol/sample, Cayman Chemical, Ann Arbor, USA, Cat# 10010606). Of the organic phase 600 μL was transferred into a fresh Eppendorf tube and the solvent removed in a SpeedVac. The residue was dissolved in 100 μL acetonitrile/ H2O (1:1) and measured with LC-MS/MS. Gradient: Solvent A = H2O + 0.1% formic acid, solvent B = acetonitrile + 0.5% formic acid, flow rate = 0 .4 mL/min, run length 6 min, gradient = 0 min 30% B, 1 min 30% B, 2 min 31.5% B, 2.1 min 95% B, 4 min 95% B, 4.1 min 30% B, 6 min 30% B. MS settings: Capillary = 3.0 kV, sampling cone = […], extraction cone […], source temperature = 100 °C, desolvat ion temperature = 350 °C, cone gas flow = 50.0 L/h, desolvation gas flow = 650.0 L/h, scan time = 0.250 s, inter-scan time = 0.020 s, mass range = 100 -800 Da. Masses of 15 -ketoprostaglandin (349.2 Da, collision energy = 21.0 eV), 13,14 -dihydro-15-ketoprostaglandin (351.2 Da, collision energy = 18.0 eV) and 13,14-dihydro-15-ketoprostaglandin (355.2 Da, collision energy = 10.0 eV) were set for MRM. The areas under the curve (AUC) were used to quantify 15 -keto-PGE2 and 13,14 -dihydro-15-keto-PGE2 levels by determining peak areas in relation to internal standard […]. The experiment was […]
Microscale thermophoresis (MST) was performed as follows: Monolith His -Tag Labeling Kit RED -tris-NTA 2nd Generation (NanoTemper Technologies, Munich, Germany, Cat# MO -L018) was used for KD determination as recommended by the purchaser. Briefly, SCARB1 ( Hölzel Biotech, Cologne, Germany, Cat# SC1-H82E5) concentration (50 nM) was adjusted in assay buffer and labelled by the RED -tris-NTA dye (100 nM). This mixture was added to compound dilution series (c = 1 mM to 30 nM) and measured using Monolith NT.115 (NanoTemper Technologies, Munich, Germany ). The experiment was performed once and analysed with the MO Affinity Analysis software (NanoTemper).
NUDT1 target validation efforts:
Recombinant NUDT1 expression & purification […]
(In MST a laser heats a spot of the sample, and binding alters the fluorescence response.)

The next test deals with HEK‐293 cells. Put plainly: Whole proteome analysis (LC-MS/MS, LFQ) of treated HEK-293 cells. Conditions: 1 µM, 24 h, versus vehicle.

T1 sequence (O95831 102-613): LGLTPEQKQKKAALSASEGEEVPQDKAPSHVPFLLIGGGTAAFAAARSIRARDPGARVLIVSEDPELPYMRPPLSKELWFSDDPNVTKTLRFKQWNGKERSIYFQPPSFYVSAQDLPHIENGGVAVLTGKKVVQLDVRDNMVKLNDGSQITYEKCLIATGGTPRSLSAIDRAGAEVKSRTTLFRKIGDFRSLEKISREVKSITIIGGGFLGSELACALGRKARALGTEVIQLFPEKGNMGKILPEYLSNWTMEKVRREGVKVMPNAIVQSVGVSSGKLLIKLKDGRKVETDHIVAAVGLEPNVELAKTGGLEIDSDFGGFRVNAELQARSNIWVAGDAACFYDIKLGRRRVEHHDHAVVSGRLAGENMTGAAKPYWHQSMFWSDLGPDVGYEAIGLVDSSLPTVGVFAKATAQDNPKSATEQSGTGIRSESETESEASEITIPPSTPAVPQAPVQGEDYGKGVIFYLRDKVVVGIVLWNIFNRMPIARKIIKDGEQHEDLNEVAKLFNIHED

Broadly, the Kd is the equilibrium constant for the complex coming apart. In the case of `C#CCCC1(CCN2CCN(c3cc4c(cc3F)c(=O)c(C(=O)O)cn4C3CC3)CC2)N=N1` [Cipro P1], at AIFM1, the “gel-based labelling of recombinant AIFM1 by probe” value is on record as “strong fluorescent band corresponding to the molecular weight of AIFM1”. For the same molecule, the Kd at SCARB1 (acquisition software MO.Control, read-out: binding affinity (Kd)) came to 394 µM. The “binding to SCARB1” value at SCARB1 (aggregation/precipitation at high compound concentrations) is on record as “weak binding”.
As for `Cc1ccccc1CN1C(=O)C2=C(CCN(Cc3ccccc3)C2)N2CCN=C12` [ONC201], in the test on HEK‐293 cells, the “pattern of downregulated proteins and affected pathways” value is “strikingly similar to Ciprofloxacin treated cells”.
